# From ChEMBL document CHEMBL1156531, “Designer enediynes generate DNA breaks, interstrand cross-links, or both, with concomitant changes in the regulation of DNA damage responses” (2007)
# The source made the active and inactive calls. No cut-off for these calls is given here.
# Columns and labels:
# [1] = Induction of double-strand break in BamH1-linearized pBR322 plasmid DNA assessed as linear DNA under aerobic condition relative to C-1027; conditions: Bacillus amyloliquefaciens
# HCT-116 [2] = assay: Ratio of IC50 for mock siRNA-treated human HCT116 cells to IC50 for siATR (ataxia telangiectasia mutated and Rad3 related)-treated human HCT116 cells after 3 days; format: functional
# BSC-1 [3] = assay: Induction of double-strand DNA break in SV40-infected african green monkey BSC1 cells assessed as amount of linear DNA after 4 hrs; format: cell-based; conditions: Betapolyomavirus macacae
# [4] = tested on: Bacillus amyloliquefaciens; assay: Induction of interstrand cross-link in BamH1-linearized pBR322 plasmid DNA assessed as amount of double-stranded DNA remaining after denaturation relative to C-1027
# BSC-1 [5] = assay: Induction of DNA interstand cross-link in SV40-infected african green monkey BSC1 cells assessed as amount of double-stranded DNA remaining after denaturation after 4 hrs; format: cell-based; conditions: Betapolyomavirus macacae
# [6] = target: T1, Serine/threonine-protein kinase Chk1 (Homo sapiens) (UniProt O14757); assay: Decrease in Chk1-Ser-345 phosphorylation in ataxia telangiectasia mutated and Rad3 related-deficient human HCT116 cells at 3 nM after 1 hr by Western blotting; format: cell-based; conditions: HCT-116
# T1 sequence (whole entry): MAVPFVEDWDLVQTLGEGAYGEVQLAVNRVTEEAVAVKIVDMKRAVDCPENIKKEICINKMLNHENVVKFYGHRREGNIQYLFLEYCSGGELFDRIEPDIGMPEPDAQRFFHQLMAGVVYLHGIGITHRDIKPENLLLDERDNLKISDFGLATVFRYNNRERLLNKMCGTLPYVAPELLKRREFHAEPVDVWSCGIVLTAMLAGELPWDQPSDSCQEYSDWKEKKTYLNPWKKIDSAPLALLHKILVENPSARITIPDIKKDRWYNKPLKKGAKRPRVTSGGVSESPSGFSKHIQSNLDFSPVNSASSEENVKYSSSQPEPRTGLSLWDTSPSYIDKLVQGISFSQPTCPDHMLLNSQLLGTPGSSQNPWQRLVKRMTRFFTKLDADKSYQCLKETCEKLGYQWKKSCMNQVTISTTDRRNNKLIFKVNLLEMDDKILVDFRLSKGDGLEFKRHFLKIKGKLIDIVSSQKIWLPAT
# HCT-116 [7] = assay: Induction of double-strand DNA break in human HCT116 cells after 4 hrs by comet assay; format: cell-based
# BSC-1 [8] = assay: Increase in DNA interstand cross-link in SV40-infected african green monkey BSC1 cells assessed as amount of double-stranded DNA remaining after denaturation at 200 nM after 4 hrs; format: cell-based; conditions: Betapolyomavirus macacae
# HCT-116 [9] = assay: Induction of DNA interstand cross-link in human HCT116 cells after 4 hrs by comet assay; format: cell-based
# BSC-1 [10] = assay: Induction of double-strand DNA break in SV40-infected african green monkey BSC1 cells assessed as amount of linear DNA at 10 uM after 4 hrs; format: cell-based; conditions: Betapolyomavirus macacae
# [11] = tested on: Bacillus amyloliquefaciens; assay: Induction of interstrand cross-link in BamH1-linearized pBR322 plasmid DNA assessed as amount of double-stranded DNA remaining at 13 nM after 4 hrs under anaerobic cell-free condition
# [12] = tested on: Bacillus amyloliquefaciens; assay: Induction of interstrand cross-link in BamH1-linearized pBR322 plasmid DNA assessed as amount of double-stranded DNA remaining at 130 nM after 4 hrs under anaerobic cell-free condition
# BSC-1 [13] = assay: Induction of DNA interstand cross-link in SV40-infected african green monkey BSC1 cells assessed as amount of double-stranded DNA remaining after denaturation at 40 nM after 4 hrs; format: cell-based; conditions: Betapolyomavirus macacae
# BSC-1 [14] = assay: Induction of double-strand DNA break in SV40-infected african green monkey BSC1 cells assessed as amount of linear DNA at 8 nM after 4 hrs; format: cell-based; conditions: Betapolyomavirus macacae
# [15] = target: T1, Serine/threonine-protein kinase Chk1 (Homo sapiens); assay: Decrease in Chk1-Ser-345 phosphorylation in ataxia telangiectasia mutated and Rad3 related-deficient human HCT116 cells at 1 nM after 1 hr by Western blotting; format: cell-based; conditions: HCT-116
Activity [1],Activity [4],Activity [11],Activity [12],SMILES,Ratio IC50 (HCT-116 [2]),Activity (BSC-1 [3]),Activity (BSC-1 [5]),Activity [6],Activity (HCT-116 [7]),Activity (BSC-1 [8]),Activity (HCT-116 [9]),Activity (BSC-1 [10]),Activity (BSC-1 [13]),Activity (BSC-1 [14]),Activity [15]
0.033%,,,,C=C1Oc2cc(OC)cc(C(=O)O[C@H]3COC(=O)C[C@H](N)c4ccc(c(Cl)c4)O[C@@H]4C#C/C=C/3C#CC3=CC=C[C@@]34O[C@@H]3OC(C)(C)[C@@H](N(C)C)[C@@H](O)[C@H]3O)c2NC1=O,,,,,,,,,,,
0.25%,< 0.003%,,,C=C1Oc2cc(OC)cc(C(=O)O[C@H]3COC(=O)C[C@H](N)c4ccc(c(O)c4)O[C@@H]4C#C/C=C/3C#CC3=CC=C[C@@]34O[C@@H]3OC(C)(C)[C@@H](N(C)C)[C@@H](O)[C@H]3O)c2NC1=O,1.3,Dose-dependent effect,inactive,Active,,,,,,,
0.02%,1%,,,C=C1Oc2cc(O)cc(C(=O)O[C@H]3COC(=O)C[C@H](N)c4cc(O)c(c(Cl)c4)O[C@@H]4C#C/C=C/3C#CC3=CC=C[C@@]34O[C@@H]3OC(C)(C)[C@@H](N(C)C)[C@@H](O)[C@H]3O)c2NC1=O,2.5,,,,inactive,Active,Active,inactive,,,
1%,1%,13%,> 30%,C=C1Oc2cc(OC)cc(C(=O)O[C@H]3COC(=O)C[C@H](N)c4cc(O)c(c(Cl)c4)O[C@@H]4C#C/C=C/3C#CC3=CC=C[C@@]34O[C@@H]3OC(C)(C)[C@@H](N(C)C)[C@@H](O)[C@H]3O)c2NC1=O,1.1,,,,inactive,Active,Active,,Active,20%,Active
